Data taken from patent publication US12540120B2, “Herbicidal compounds” (SYNGENTA CROP PROTECTION AG, priority 2019, dated 2026).

Legend:
Type in all cases: in vivo
Setaria faberi (SETFA) [1] = test: B2 Post-Emergence Efficacy—Test 2; conditions: post-emergence application, 250 g/ha, evaluated after 13 days (Test 2)
Procedure: (§1) B2 Post-Emergence Efficacy—Test 2 Seeds of a variety of test species are sown in standard soil in pots:—Solanum nigrum (SOLNI), Amaranthus retoflexus (AMARE), Setaria faberi (SETFA), Echinochloa crus-galli (ECHCG), Ipomoea hederacea (IPOHE), Lolium perenne (LOLPE). After 8 days cultivation (post-emergence) under controlled conditions in a glasshouse (at 24/16° C., day/night; 14 hours light; 65% humidity), the plants are sprayed with an aqueous spray solution derived from the formulation of the technical active ingredient in acetone/water (50:50) solution containing 0.5% Tween 20 (polyoxyethylene sorbitan monolaurate, CAS RN 9005-64-5). Compounds are applied at 250 g/ha. The test plants are then grown in a glasshouse under controlled conditions in a glasshouse (at 24/16° C., day/night; 14 hours light; 65% humidity) and watered twice daily. After 13 days, the test is evaluated for the percentage damage caused to the plant. The biological activities are assessed on a five point scale (5=80-100%; 4=60-79%; 3=40-59%; 2=20-39%; 1=0-19%). A blank value in the table is indicative that the compound was not tested on that species.

[2] = test system: Echinochloa crus-galli (ECHCG); test: B2 Post-Emergence Efficacy—Test 2; conditions: post-emergence application, 250 g/ha, evaluated after 13 days (Test 2)
Procedure: as §1

[3] = test system: Amaranthus retoflexus (AMARE); test: B2 Post-Emergence Efficacy—Test 2; conditions: post-emergence application, 250 g/ha, evaluated after 13 days (Test 2)
Procedure: as §1

Lolium perenne (LOLPE) [4] = test: B2 Post-Emergence Efficacy—Test 2; conditions: post-emergence application, 250 g/ha, evaluated after 13 days (Test 2)
Procedure: as §1

[5] = test system: Ipomoea hederacea (IPOHE); test: B2 Post-Emergence Efficacy—Test 2; conditions: post-emergence application, 250 g/ha, evaluated after 13 days (Test 2)
Procedure: as §1

Solanum nigrum (SOLNI) [6] = test: B2 Post-Emergence Efficacy—Test 2; conditions: post-emergence application, 250 g/ha, evaluated after 13 days (Test 2)
Procedure: as §1

Setaria faberi (SETFA) [7] = test: B5 Pre-Emergence Efficacy—Test 2; set-up: key: 5-point scale: 5=80-100%, 4=60-79%, 3=40-59%, 2=20-39%, 1=0-19% damage; conditions: 250 g/ha, evaluated after 13 days
Procedure: (§2) B5 Pre-Emergence Efficacy—Test 2 Seeds of a variety of test species were sown in standard soil in pots: Solanum nigrum (SOLNI), Amaranthus retoflexus (AMARE), Setaria faberi (SETFA), Echinochloa crus-galli (ECHCG), Ipomoea hederacea (IPOHE), Lolium perenne (LOLPE). After cultivation for one day (pre-emergence) under controlled conditions in a glasshouse (at 24/16° C., day/night; 14 hours light; 65% humidity), the plants were sprayed with an aqueous spray solution derived from the formulation of the technical active ingredient in acetone/water (50:50) solution containing 0.5% Tween 20 (polyoxyethelyene sorbitan monolaurate, CAS RN 9005-64-5). Compounds are applied at 250 g/ha. The test plants were then grown in a glasshouse under controlled conditions (at 24/16° C., day/night; 14 hours light; 65% humidity) and watered twice daily. After 13 days, the test is evaluated for the percentage damage caused to the plant. The biological activities are assessed on a five point scale (5=80-100%; 4=60-79%; 3=40-59%; 2=20-39%; 1=0-19%). A blank value in the table is indicative that the compound was not tested on that species.

[8] = test system: Echinochloa crus-galli (ECHCG); test: B5 Pre-Emergence Efficacy—Test 2; set-up: key: 5-point scale: 5=80-100%, 4=60-79%, 3=40-59%, 2=20-39%, 1=0-19% damage; conditions: 250 g/ha, evaluated after 13 days
Procedure: as §2

Lolium perenne (LOLPE) [9] = test: B5 Pre-Emergence Efficacy—Test 2; set-up: key: 5-point scale: 5=80-100%, 4=60-79%, 3=40-59%, 2=20-39%, 1=0-19% damage; conditions: 250 g/ha, evaluated after 13 days
Procedure: as §2

[10] = test system: Ipomoea hederacea (IPOHE); test: B5 Pre-Emergence Efficacy—Test 2; set-up: key: 5-point scale: 5=80-100%, 4=60-79%, 3=40-59%, 2=20-39%, 1=0-19% damage; conditions: 250 g/ha, evaluated after 13 days
Procedure: as §2

[11] = test system: Amaranthus retoflexus (AMARE); test: B5 Pre-Emergence Efficacy—Test 2; conditions: 250 g/ha, evaluated after 13 days
Procedure: as §2

Solanum nigrum (SOLNI) [12] = test: B5 Pre-Emergence Efficacy—Test 2; conditions: 250 g/ha, evaluated after 13 days
Procedure: as §2

| SMILES | percentage damage caused to the plant, five point scale, SETFA (Setaria faberi (SETFA) [1]) | percentage damage caused to the plant, five point scale, ECHCG [2] | percentage damage caused to the plant, five point scale, AMARE [3] | percentage damage caused to the plant, five point scale, LOLPE (Lolium perenne (LOLPE) [4]) | percentage damage caused to the plant, five point scale, IPOHE [5] | percentage damage caused to the plant, five point scale, SOLNI (Solanum nigrum (SOLNI) [6]) | Control of weed species after pre-emergence application, SETFA (percentage damage, five point scale) (Setaria faberi (SETFA) [7]) | Control of weed species after pre-emergence application, ECHCG (percentage damage, five point scale) [8] | Control of weed species after pre-emergence application, LOLPE (percentage damage, five point scale) (Lolium perenne (LOLPE) [9]) | Control of weed species after pre-emergence application, IPOHE (percentage damage, five point scale) [10] | Control of weed species after pre-emergence application, AMARE (percentage damage, five point scale) [11] | Control of weed species after pre-emergence application, SOLNI (percentage damage, five point scale) (Solanum nigrum (SOLNI) [12]) |
| --- | --- | --- | --- | --- | --- | --- | --- | --- | --- | --- | --- | --- |
| Cc1nn(C)c(=O)c(-c2c(F)ccc(Cl)c2CCc2ccc(-n3cncn3)cc2)c1O [Compound A-1.385, 4-[3-chloro-6-fluoro-2-[2-[4-(1,2,4-triazol-1-yl)phenyl]ethyl]phenyl]-5-hydroxy-2,6-dimethyl-pyridazin-3-one] | 5 (5=80-100%) | 5 (5=80-100%) | 5 (5=80-100%) | 5 (5=80-100%) | 5 (5=80-100%) | 5 (5=80-100%) | 5 (5=80-100%) | 5 (5=80-100%) | 5 (5=80-100%) | 5 (5=80-100%) | 5 (5=80-100%) | 5 (5=80-100%) |
| Cc1nn(C)c(=O)c(-c2c(F)ccc(Cl)c2/C=C/c2ccccc2C#N)c1OC(=O)C(C)C [Compound A-4.029] | 0 | 1 (1=0-19%) | 4 (4=60-79%) | 1 (1=0-19%) | 4 (4=60-79%) | 4 (4=60-79%) | 0 | 0 | 0 | 0 | 2 (2=20-39%) | 4 (4=60-79%) |
| Cc1nn(C)c(=O)c(-c2c(F)ccc(Cl)c2CCc2ccc(-c3ccccc3)cc2)c1O [Compound A-1.027, 4-[3-chloro-6-fluoro-2-[2-(4-phenylphenyl)ethyl]phenyl]-5-hydroxy-2,6-dimethyl-pyridazin-3-one] | 5 (5=80-100%) | 5 (5=80-100%) | 5 (5=80-100%) | 5 (5=80-100%) | 4 (4=60-79%) | 4 (4=60-79%) | 3 (3=40-59%) | 1 (1=0-19%) | 2 (2=20-39%) | 4 (4=60-79%) | 5 (5=80-100%) | 4 (4=60-79%) |
| Cc1nn(C)c(=O)c(-c2c(F)ccc(Cl)c2CCc2ccc(C(C)(C)C)cc2)c1O [Compound A-1.026] | 2 (2=20-39%) | 0 | 4 (4=60-79%) | 1 (1=0-19%) | 0 | 4 (4=60-79%) | 0 | 0 | 0 | 0 | 0 | 0 |
| CCN(C)C(=O)c1ccc(CCc2c(Cl)ccc(F)c2-c2c(OC(=O)C(C)C)c(C)nn(C)c2=O)cc1F [Compound A-3.028, [5-[3-Chloro-2-[2-[4-[ethyl(methyl)carbamoyl]-3-fluoro-phenyl]ethyl]-6-fluoro-phenyl]-1,3-dimethyl-6-oxo-pyridazin-4-yl] 2-methylpropanoate] | 4 (4=60-79%) | 5 (5=80-100%) | 4 (4=60-79%) | 5 (5=80-100%) | 5 (5=80-100%) | 5 (5=80-100%) | 5 (5=80-100%) | 5 (5=80-100%) | 5 (5=80-100%) | 5 (5=80-100%) | 5 (5=80-100%) | 5 (5=80-100%) |
| Cc1nn(C)c(=O)c(-c2c(F)ccc(Cl)c2/C=C/c2cccc(C#N)c2)c1OC(=O)C(C)C [Compound A-4.030] | 0 | 1 (1=0-19%) | 2 (2=20-39%) | 1 (1=0-19%) | 3 (3=40-59%) | 3 (3=40-59%) | 1 (1=0-19%) | 1 (1=0-19%) | 2 (2=20-39%) | 1 (1=0-19%) | 3 (3=40-59%) | 4 (4=60-79%) |
| Cc1nn(C)c(=O)c(-c2c(F)ccc(Cl)c2CCc2ccccc2C#N)c1O [Compound A-1.029] | 4 (4=60-79%) | 2 (2=20-39%) | 4 (4=60-79%) | 4 (4=60-79%) | 5 (5=80-100%) | 5 (5=80-100%) | 1 (1=0-19%) | 5 (5=80-100%) | 2 (2=20-39%) | 1 (1=0-19%) | 3 (3=40-59%) | 5 (5=80-100%) |
